Like-named read-outs stand apart in the source and are kept apart here.
Experiments:
bovine trypsin = target: T1, bovine trypsin (Bos taurus, UniProt P00760); test: Fluorescence anisotropy titration of fluorescein-labelled ODNs with increasing trypsin; assay type: binding; conditions: for Kd: preformed quadruplex, 2 nM ODN; for change of trypsin affinity on lowering salt to 5 mM KCl, 25 mM Hepes, pH 7.4: low salt versus high salt
T1 construct: purchased Sigma Aldrich; host or cells: bovine pancreas
T1 sequence (P00760 24-246): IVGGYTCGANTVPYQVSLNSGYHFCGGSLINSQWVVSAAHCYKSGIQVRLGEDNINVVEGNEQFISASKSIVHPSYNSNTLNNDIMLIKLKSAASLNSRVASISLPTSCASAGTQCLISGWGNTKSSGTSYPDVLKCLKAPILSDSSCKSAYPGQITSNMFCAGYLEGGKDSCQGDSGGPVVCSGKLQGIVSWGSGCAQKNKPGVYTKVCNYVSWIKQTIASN
Description: The next step was to determine whether the intramolecular quadruplex conformation of AC 1 leads to enhanced affinity towards trypsin as a result of bidentate binding (FIG. 15, pathway A). […] AC 1 and ODNs 2 through 4 were first incubated in the presence of potassium cations to induce the quadruplex fold. The preformed quadruplexes were then incubated with increasing concentrations of trypsin at 25° C. (25 mM KCl, 200 mM NaCl, 25 mM Hepes, pH 7.4) for 30 min. Preliminary fluorescence anisotropy studies were conducted to ascertain that equilibrium was reached after 30 min and that there was no significant quenching of the fluorescein emission. The anisotropy associated with the fluorescein emission was followed at 525 nm (excitation at 495 nm). The resultant binding isotherms (FIG. 14) were fitted using non-linear regression to a 1:1 binding stoichiometry. […] In fact, the dissociation constant was determined to be 8.1×10^−7 M, a value that indicates a greater than 100 and 30 fold binding enhancement when compared to monodentate controls ODN 3 and ODN 2, respectively. […] This dissociation constant is attributed to non-specific interactions between bovine trypsin and ODN 4, since trypsin (pI=10.5) is positively charged at pH=7.4 and thus can potentially associate with the negatively charged DNA backbone. Support for such non-specific interactions comes from incubation of trypsin with ODN 4 where the concentration of salts were decreased to only 5 mM KCl, 25 mM Hepes, pH 7.4 (see, e.g., FIG. 23).
Immediately prior to each fluorescence polarization experiment, fresh stock solutions of trypsin were made in Hepes buffer (20 mM KCl, 200 mM NaCl, 25 mM Hepes, pH 7.4). Concentration of the trypsin in the stock solutions were determined using ultra-violet absorbance at 280 nm (ε=37669 M^−1cm^−1). Serial dilutions from the stock solution of trypsin were made into eppendorf tubes (spanning a range from 1×10^−9 to 1×10^−3M). To these trypsin-containing tubes were added aliquots of ODNs, such that the total concentration of ODNs in each eppendorf tube was 2 nM. After gently agitating, 150 uL from each eppendorf was transferred to respective borosilicate glass culture tubes and the tubes were allowed to equilibrate for 30 minutes at 25° C. (preliminary fluorescence anisotropy studies were conducted to ascertain that equilibrium was reached after 30 min and that there was no significant quenching of the fluorescein emission). Fluorescence polarization at 25° C. was determined on a Molecular Probes Beacon 2000 Fluorescence Polarization Instrument, using 495 and 525 nm narrow band pass filters for excitation and emission, respectively. Values of millipolarization (mP) from the Beacon 2000 were converted to millianisotropy (mA) using equation 1, where A is the anisotropy value, and P is the observed polarization.
1:1 (trypsin:ODN) binding mode: Anisotropy was plotted against trypsin (receptor protein) concentration and fitted to Equation 2 (a single-site model without receptor depletion), wherein Af is the anisotropy of the unbound ODN, Ab is the anisotropy of the bound ODN, Or is the total added ODN concentration (in M units), and Kd is the dissociation constant. Non-linear regression analysis using Origin 8.0 software was used for fitting the experimental data.
Cooperative binding mode: Binding equilibrium best described as cooperative binding was fitted to the Hill equation (Equation 3), where the fluorescence quantum yield of fluorescein is constant and the ODN substrate is limiting. R is the total protein concentration, R1/2 (or [trypsin]1/2) is the protein concentration required for half-maximal binding, and h is the Hill coefficient.

thrombin = thrombin (Homo sapiens, UniProt P00734); conditions: literature; cited from earlier work
streptavidin = target: T2, streptavidin (Streptomyces avidinii, UniProt P22629); test: Streptavidin-immobilized microplate assay, hemin/H2O2 oxidation of ABTS, absorbance at 414 nm; conditions: 5 μM ODN with 5 μM hemin, 1 h incubation, washed, ABTS 2 mM
T2 construct: purchased Thermo Fisher Scientific (NUNC)
Description: As shown schematically in FIG. 28, streptavidin-immobilized, NUNC 96 well microplates were obtained from Thermo Fisher Scientific. Each well was pre-washed three times with 100 μL of PBS buffer (20 mM NaH2PO4, 30 mM Na2HPO4, 100 mM NaCl, pH 7.4). To each well, 100 μL of sample ODNs (5 μM, previously annealed from 95° C.) with hemin (5 μM) in Hepes buffer (50 mM HEPES, 20 mM KCl, 200 mM NaCl, 1% DMSO, 0.05% Triton X-100, pH 8.0) was incubated for one hour with gentle agitation. Sample ODN solutions were then removed by inversion, and each well washed three times with PBS buffer. Plate wells were then refilled with 98.5 μL of the Hepes buffer containing ABTS (2,2′-azino-bis(3-ethylbenzthiazoline-6-sulphonic acid)). Hydrogen peroxide (2 mM) was then introduced to each well bringing the total assay volume to 100 μL and total ABTS concentration to 2 mM. Visible light absorbance at 414 nm was then immediately followed on a Molecular Devices SpectraMax 190 microplate reader (FIG. 27).

[1] = high salt (20 or 25 mM KCl, 200 mM NaCl, 25 mM Hepes, pH 7.4), 25° C., 1:1 fit, read-out: dissociation constant (Kd) for trypsin
[2] = 5 mM KCl, 25 mM Hepes, pH 7.4, read-out: dissociation constant (Kd) for trypsin, low-salt conditions

T2 sequence (P22629 25-183): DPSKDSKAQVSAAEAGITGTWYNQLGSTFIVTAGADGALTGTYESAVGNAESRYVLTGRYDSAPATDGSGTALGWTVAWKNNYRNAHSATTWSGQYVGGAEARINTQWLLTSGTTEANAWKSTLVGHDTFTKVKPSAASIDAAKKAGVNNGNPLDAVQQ

Substance | Kd (bovine trypsin; [1]) | change of trypsin affinity on lowering salt to 5 mM KCl, 25 mM Hepes, pH 7.4 (bovine trypsin) | Kd (bovine trypsin; [2]) | also measured
ODN 2 (TTGGTTGGTGTGGTTGGT; 5' ba arm attached, fluorescein-dT conjugate, further chemistry not given here) | 29 µM | – | – | –
AC 1 (TTGGTTGGTGTGGTTGGT; 5' dT fluorescein conjugate, ba and ipt arms attached, further chemistry not given here) | 0.81 µM | only slight change in affinity | 2.8 µM | potency of quadruplex form in binding trypsin relative to double helical structure (duplex 1:5) (bovine trypsin; Kd of quadruplex versus [trypsin]1/2 of duplex): about 20 times; binding enhancement compared to monodentate control ODN 2 (bovine trypsin; ratio of Kd values, high salt): > 30 fold; binding enhancement compared to monodentate control ODN 3 (bovine trypsin; ratio of Kd values, high salt): greater than 100 fold
ODN 3 (TTGGTTGGTGTGGTTGGT; 3' ipt arm attached, fluorescein-dT conjugate, further chemistry not given here) | 90 µM | – | – | –
thrombin binding aptamer: core sequence 5′-GGTTGGTGTGGTTGG-3′ (SEQ ID NO:6) | – | – | – | dissociation constant (Kd) of complex with thrombin (thrombin): micromolar range
ODN 4: 5′-TTGGTTGGTGTGGTTGGT-3′, no arms, 5′ terminal dT bearing fluorescein; negative control (listed as DNA, chemistry not fully specified) | 2900 µM | significant decrease in the Kd | 31 µM | –
AC-X1: hemin binding aptamer core (SEQ ID NO:9) with biotin as small molecule handle for streptavidin (TGGGTAGGGCGGGTTGGGT; DNA, backbone and methylation of C not given here; biotin tethered via linker) | – | – | – | absorbance change at 414 nm versus control HBA well (streptavidin): greater absorbance change
